One compound from ChEMBL document CHEMBL2157874, “First total synthesis of prasinic acid and its anticancer activity” (Bioorg Med Chem Lett, 2012) can be followed below.

In one assay the test system is ACHN. Description: Cytotoxicity against human ACHN cells after 48 hrs by modified propidium iodide assay. In kind it is functional, cell-based.
Another assay has as its system Calu-1. Description: Cytotoxicity against human Calu1 cells after 48 hrs by modified propidium iodide assay. The note with it: Calu-1, 48 h. It is filed as functional, cell-based.
The test system of a further assay is MCF-10A. Description: Cytotoxicity against human MCF10A cells after 48 hrs by modified propidium iodide assay. In kind it is cell-based.
In the next assay the test system is PANC-1. The assay can be described thus: Cytotoxicity against human PANC1 cells after 48 hrs by modified propidium iodide assay. In kind it is functional, cell-based. The note with it: PANC-1, 48 h.
The subject of a further assay is NCI-H460. The assay can be described thus: Cytotoxicity against human H460 cells after 48 hrs by modified propidium iodide assay. The note with it: NCI-H460, 48 h. In kind it is functional, cell-based.
A further assay concerns HCT-116. The assay can be described thus: Cytotoxicity against human HCT116 cells after 48 hrs by modified propidium iodide assay. The note with it: HCT-116, 48 h. It is filed as functional, cell-based.

Each structure is given as a SMILES string. Where only a bound is given, the exact number is not on record here.

For `CCCCCCCc1cc(OC(=O)c2c(O)cc(O)cc2CCCCCCC)cc(O)c1C(=O)O` [PRASINIC ACID], the IC50 is 8.2 µM in the assay on ACHN; 4.3 µM in the assay with Calu-1; above 30 µM with MCF-10A; 8.5 µM in the assay on PANC-1; 9.1 µM in the assay with NCI-H460; 7.8 µM in the assay with HCT-116.

The IC50 is the concentration at which inhibition is half-maximal. Lower therefore signals higher potency.
